Patent US20190374572A1, “KAOLINIC CLAYS WITH ANTIMICROBIAL ACTIVITY” (IMERYS USA, INC., priority 2017, published 2019)
Marks after values point to notes of the source that are not given here.

Columns and labels:
E. coli [1] = experiment: CFU-based bacterial assay; assay type: cell-based
Procedure: Each sample set was evaluated using at least one of the following assays: (1) a CFU-based bacterial assay; […] As explained above, following sample incubation the samples were evaluated for the level of bacterial growth using a CFU-based bacterial assay and/or a UV-visible bacterial assay. The CFU-based bacterial assay involves serially diluting samples by various dilution factors, plating the surface of pre-poured LB plates, and manually counting the resulting sample cultures to measure the level of growth based on log10 CFU/ml. CFU per ml were calculated by counting the number of colonies on the plate with growths ranging from 30 and 300, and then applying the equation (1): In this CFU-based bacterial assay, the levels of activity corresponding to the control samples (no E. coli) were set as the zero points.

E. coli [2] = experiment: UV-visible bacterial assay (optical density at 570 nm); assay type: cell-based

| SMILES | 24 Hour log10 CFU/ml (E. coli [1]) | Antibacterial potential category from OD at 570 nm (E. coli [2]) | UV-Vis Abs @ 570 nm (Optical Density (OD)) (E. coli [2]) |
| --- | --- | --- | --- |
| O.O.O.O.O.O.O.O=S(=O)([O-])[O-].[Fe+2] [Example 20, iron (II) sulfate heptahydrate] | 8.8 log10 CFU/ml | 1.172 ^s) (key: Complete Kill Candidate (<0.250); p: Inhibition-Kill Candidate (0.250-0.350); q: Inhibition Candidate (0.351-0.450); <10^8 Growth Candidate (0.451-1.250); Robust Growth Candidate (>1.251)) |  |
| O.O.O.O.O.O.O.O=S(=O)([O-])[O-].[Fe+2] [Example 21, iron (II) sulfate heptahydrate] | 0 log10 CFU/ml | 0.291 ^q) (key: Complete Kill Candidate (<0.250); p: Inhibition-Kill Candidate (0.250-0.350); q: Inhibition Candidate (0.351-0.450); <10^8 Growth Candidate (0.451-1.250); Robust Growth Candidate (>1.251)) |  |
| O.O.O.O.O.O=S(=O)([O-])[O-].[Cu+2] [Example 22, copper (II) sulfate pentahydrate] | 7.8 log10 CFU/ml | 0.734 ^r) (key: Complete Kill Candidate (<0.250); p: Inhibition-Kill Candidate (0.250-0.350); q: Inhibition Candidate (0.351-0.450); <10^8 Growth Candidate (0.451-1.250); Robust Growth Candidate (>1.251)) | 0.734 ^r) |
| O.O.O.O.O.O=S(=O)([O-])[O-].[Cu+2] [Example 23, copper (II) sulfate pentahydrate] | 2.4 log10 CFU/ml |  |  |
| O.O.O.O.O.O=S(=O)([O-])[O-].[Cu+2] [Example 24, copper (II) sulfate pentahydrate] | 0 log10 CFU/ml | 0.055 ^p) (key: Complete Kill Candidate (<0.250); p: Inhibition-Kill Candidate (0.250-0.350); q: Inhibition Candidate (0.351-0.450); <10^8 Growth Candidate (0.451-1.250); Robust Growth Candidate (>1.251)) | 0.055 ^p) |
